This note sets out measurements from patent US7384983B2, “Inhibitor of monoamine uptake” (Eli Lilly and Company, priority 2001, dated 2008).

In one assay the target is uptake of serotonin. The assay can be described thus: Microdialysis Assays of Monoamines: inhibition of serotonin uptake. As to conditions: tested essentially as described for microdialysis assays. Here is the method:
(§1) Microdialysis Assays of Monoamines
(§2) Sprague-Dawley rats (Harlan or Charles River) weighing 270-300 grams are surgically implanted with microdialysis probes under chloral hydrate/pentobarbital anesthesia (170 and 36 mg/kg i.p. in 30% propylene glycol, 14% ethanol) as described by Perry and Fuller. (Perry and Fuller, Effect of fluoxetine on serotonin and dopamine concentration in rat hypothalamus after administration of fluoxetine plus L-5-hydroxytryptophan, Life Sci., 50, 1683-90 (1992)). A David Kopf stereotaxic instrument is used to implant the probe unilaterally in the hypothalamus at coordinates rostral −1.5 mm, lateral −1.3 mm, and ventral −9.0 mm (Paxinos and Watson, 1986). After a 48-hour recovery period, rats are placed in a large plastic bowl with a mounted liquid swivel system (CMA/120 system for freely moving animals, Bioanalytical Systems, West Lafayette, Ind.). Filtered artificial cerebrospinal fluid (CSF) (150 mM NaCl, 3.0 MM KCl, 1.7 mM CaCl2, and 0.9 mM MgCl2) is perfused through the probe at a rate of […]. […]
(§3) The method used to measure monoamines is as described by Perry and Fuller (1992). […] The electrochemical detector (EG&G, Model 400) for the amine column is set at a potential of 400 mV and a sensitivity of 0.2 nA/V. Basal levels are measured for at least 90 minutes prior to drug administration. […]

Another assay concerns the target uptake of norepinephrine. Put plainly: Microdialysis Assays of Monoamines: inhibition of norepinephrine uptake. The assay is classed as in vivo, Sprague-Dawley rats. Conditions: tested essentially as described for microdialysis assays. The protocol: as §1, §2, §3

As a reminder, the Ki is the equilibrium dissociation constant of an inhibitor or competing ligand from its target. High values mean lower affinity, low ones higher affinity. For the compound `CNCC[C@@H](Oc1ccc(O)cc1C)c1ccccc1` [R-(−)-N-methyl 3-((2-methyl-4-hydroxyphenyl)oxy)-3-phenyl-1-aminopropane], the inhibitory constant (Ki) at uptake of serotonin stood at 43 nM; at uptake of norepinephrine it was 3 nM.
